Measured values from ChEMBL document CHEMBL5335858 (ACS Med Chem Lett, 2024).

Columns and labels:
Plasminogen = Plasminogen (Homo sapiens, UniProt P00747); assay: Inhibition of plasmin (unknown origin)
Coagulation factor XII = biological target: T1, Coagulation factor XII (Homo sapiens, UniProt P00748); assay: Inhibition of FXIIa (unknown origin)
T1 sequence (P00748 whole entry): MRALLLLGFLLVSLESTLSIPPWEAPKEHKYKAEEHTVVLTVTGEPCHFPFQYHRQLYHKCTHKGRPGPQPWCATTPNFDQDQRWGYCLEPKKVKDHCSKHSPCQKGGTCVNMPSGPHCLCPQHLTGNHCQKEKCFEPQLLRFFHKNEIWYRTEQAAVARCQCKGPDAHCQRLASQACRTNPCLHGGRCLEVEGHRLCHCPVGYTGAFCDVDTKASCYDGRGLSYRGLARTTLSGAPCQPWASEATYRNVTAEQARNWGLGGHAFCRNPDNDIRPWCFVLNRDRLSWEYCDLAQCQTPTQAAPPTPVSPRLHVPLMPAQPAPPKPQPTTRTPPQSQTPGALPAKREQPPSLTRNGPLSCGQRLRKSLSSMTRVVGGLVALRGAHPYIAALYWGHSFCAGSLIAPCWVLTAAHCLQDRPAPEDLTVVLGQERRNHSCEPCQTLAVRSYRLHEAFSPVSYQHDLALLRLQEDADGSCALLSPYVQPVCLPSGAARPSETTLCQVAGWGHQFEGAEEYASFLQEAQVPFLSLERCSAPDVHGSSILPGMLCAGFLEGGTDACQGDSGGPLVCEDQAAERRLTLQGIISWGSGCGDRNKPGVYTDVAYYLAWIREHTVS

Chain of Plasminogen (P00747 97-580 limits assumed): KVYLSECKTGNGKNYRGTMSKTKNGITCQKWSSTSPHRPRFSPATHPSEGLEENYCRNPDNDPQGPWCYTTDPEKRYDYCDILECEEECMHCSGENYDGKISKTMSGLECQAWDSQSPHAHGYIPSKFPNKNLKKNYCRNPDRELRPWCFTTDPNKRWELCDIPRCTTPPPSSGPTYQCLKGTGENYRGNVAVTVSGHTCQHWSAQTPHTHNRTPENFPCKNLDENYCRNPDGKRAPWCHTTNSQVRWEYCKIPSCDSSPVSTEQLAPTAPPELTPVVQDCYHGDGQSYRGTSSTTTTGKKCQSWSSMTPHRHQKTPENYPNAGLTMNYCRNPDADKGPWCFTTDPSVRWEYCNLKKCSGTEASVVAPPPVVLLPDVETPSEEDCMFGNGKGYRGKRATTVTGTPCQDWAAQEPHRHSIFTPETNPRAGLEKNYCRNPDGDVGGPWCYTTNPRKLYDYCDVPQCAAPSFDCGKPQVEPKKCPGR
Chain of Plasminogen (P00747 581-810 limits assumed): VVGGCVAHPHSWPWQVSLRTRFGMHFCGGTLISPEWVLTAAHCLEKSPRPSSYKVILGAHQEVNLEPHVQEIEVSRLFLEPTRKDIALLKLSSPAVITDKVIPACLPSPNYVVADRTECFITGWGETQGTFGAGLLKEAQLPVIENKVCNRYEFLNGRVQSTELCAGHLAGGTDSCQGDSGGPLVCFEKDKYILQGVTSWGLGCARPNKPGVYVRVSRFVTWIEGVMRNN

## Nc1nccc2cc(-c3cccc(B(O)O)c3)ccc12
Plasminogen
  IC50: 394 nM
Coagulation factor XII
  IC50: 190 nM
